Values after ≈ are worked out from the molar mass of the structure shown.
Tests used:
Assay in all cases: microbe, parasite or virus in culture
Format in all cases: cell-based
[1] = system: Brucella abortus (BAB; Gram-negative); details: read-out: MIC BAB
[2] = system: Francisella tularensis (FT; Gram-negative); details: read-out: MIC FT
[3] = system: Yersinia pestis (YP; Gram-negative); details: read-out: MIC YP
[4] = system: Bacillus anthracis (BA; Gram-positive); details: read-out: MIC BA
[5] = system: Burkholderia mallei (BM; Gram-negative); details: read-out: MIC BM
[6] = system: Burkholderia pseudomallei (BP; Gram-negative); details: read-out: MIC BP

CCN(CC)CCOc1c2[nH]c3ccc(F)cc3c2cc2c1[nH]c1ccc(F)cc12
MIC [1]: 1 µg/mL (≈ 2.45 µM) | MIC [2]: 0.5 µg/mL (≈ 1.23 µM) | MIC [3]: > 16 µg/mL | MIC [4]: 1 µg/mL (≈ 2.45 µM)

CC(CN(C)C)Oc1c2[nH]c3ccc(F)cc3c2cc2c1[nH]c1ccc(F)cc12 (stereo not shown)
MIC [1]: 0.5 µg/mL (≈ 1.27 µM) | MIC [2]: 0.5 µg/mL (≈ 1.27 µM) | MIC [3]: 16 µg/mL (≈ 40.7 µM) | MIC [4]: 1 µg/mL (≈ 2.54 µM)

NC1CCN(CCCOc2c3[nH]c4ccc(F)cc4c3cc3c2[nH]c2ccc(F)cc23)CC1
MIC [1]: 0.5 µg/mL (≈ 1.11 µM) | MIC [2]: 0.125 to 0.5 µg/mL (≈ 0.279 to 1.11 µM) | MIC [3]: 2 µg/mL (≈ 4.46 µM) | MIC [4]: 0.5 µg/mL (≈ 1.11 µM)

N[C@H]1CCN(CCCOc2c3[nH]c4ccc(F)cc4c3cc3c2[nH]c2ccc(F)cc23)C1
MIC [1]: 1 µg/mL (≈ 2.3 µM) | MIC [2]: 0.5 µg/mL (≈ 1.15 µM) | MIC [3]: 4 µg/mL (≈ 9.21 µM) | MIC [4]: 1 µg/mL (≈ 2.3 µM)

NC1CCN(CCOc2c3[nH]c4ccc(Cl)cc4c3cc3c2[nH]c2ccc(Cl)cc23)CC1
MIC [1]: 1 µg/mL (≈ 2.14 µM) | MIC [2]: 0.5 µg/mL (≈ 1.07 µM) | MIC [3]: 16 µg/mL (≈ 34.2 µM) | MIC [4]: 2 µg/mL (≈ 4.28 µM)

Clc1ccc2[nH]c3c(OCCCn4cncn4)c4[nH]c5ccc(Cl)cc5c4cc3c2c1
MIC [2]: 0.25 µg/mL (≈ 0.555 µM) | MIC [4]: 0.5 µg/mL (≈ 1.11 µM)

Clc1ccc2[nH]c3c(OCCCn4cnnc4)c4[nH]c5ccc(Cl)cc5c4cc3c2c1
MIC [2]: 0.5 µg/mL (≈ 1.11 µM) | MIC [4]: 0.25 µg/mL (≈ 0.555 µM)

CN(C)C1CCN(CCOc2c3[nH]c4ccc(F)cc4c3cc3c2[nH]c2ccc(F)cc23)C1 (stereo not shown)
MIC [1]: 0.5 µg/mL (≈ 1.11 µM) | MIC [2]: 0.5 µg/mL (≈ 1.11 µM) | MIC [3]: > 8 µg/mL | MIC [4]: 1 µg/mL (≈ 2.23 µM)

OC1CN(CCCOc2c3[nH]c4ccc(Cl)cc4c3cc3c2[nH]c2ccc(Cl)cc23)C1
MIC [1]: 1 µg/mL (≈ 2.2 µM) | MIC [2]: 0.5 µg/mL (≈ 1.1 µM) | MIC [3]: 4 µg/mL (≈ 8.8 µM) | MIC [4]: 0.5 µg/mL (≈ 1.1 µM)

CC(C)/N=C(/NCCCOc1c2[nH]c3ccc(F)cc3c2cc2c1[nH]c1ccc(F)cc12)NC(C)C
MIC [1]: 1 µg/mL (≈ 2.03 µM) | MIC [2]: 1 µg/mL (≈ 2.03 µM) | MIC [3]: 4 µg/mL (≈ 8.14 µM) | MIC [4]: 0.5 µg/mL (≈ 1.02 µM)

CC/N=C(/NCCCOc1c2[nH]c3ccc(Cl)cc3c2cc2c1[nH]c1ccc(Cl)cc12)NCCCN(C)C
MIC [1]: 1 µg/mL (≈ 1.81 µM) | MIC [2]: 1 µg/mL (≈ 1.81 µM) | MIC [5]: 4 µg/mL (≈ 7.23 µM) | MIC [3]: 1 µg/mL (≈ 1.81 µM) | MIC [6]: 4 µg/mL (≈ 7.23 µM) | MIC [4]: ≤ 0.25 µg/mL

Clc1ccc2[nH]c3c(OCCC4CCNCC4)c4[nH]c5ccc(Cl)cc5c4cc3c2c1
MIC [1]: ≤ 0.25 µg/mL | MIC [2]: 0.5 µg/mL (≈ 1.11 µM) | MIC [5]: 4 µg/mL (≈ 8.84 µM) | MIC [3]: 1 µg/mL (≈ 2.21 µM) | MIC [6]: > 8 µg/mL | MIC [4]: ≤ 0.25 µg/mL

Fc1ccc2[nH]c3c(OC4CCNC4)c4[nH]c5ccc(F)cc5c4cc3c2c1 (stereo not shown)
MIC [1]: ≤ 0.25 µg/mL | MIC [2]: 0.5 µg/mL (≈ 1.32 µM) | MIC [5]: 2 µg/mL (≈ 5.3 µM) | MIC [3]: 1 µg/mL (≈ 2.65 µM) | MIC [6]: 4 µg/mL (≈ 10.6 µM) | MIC [4]: ≤ 0.25 µg/mL

Clc1ccc2[nH]c3c(OCCCNCc4c[nH]c5ccccc45)c4[nH]c5ccc(Cl)cc5c4cc3c2c1
MIC [1]: 0.5 µg/mL (≈ 0.948 µM) | MIC [2]: 1 µg/mL (≈ 1.9 µM) | MIC [5]: > 8 µg/mL | MIC [3]: 2 µg/mL (≈ 3.79 µM) | MIC [6]: > 8 µg/mL | MIC [4]: 1 µg/mL (≈ 1.9 µM)

Clc1ccc2[nH]c3c(OCCCNCc4ccc[nH]4)c4[nH]c5ccc(Cl)cc5c4cc3c2c1
MIC [1]: 0.5 µg/mL (≈ 1.05 µM) | MIC [2]: 0.5 µg/mL (≈ 1.05 µM) | MIC [5]: > 8 µg/mL | MIC [3]: 2 µg/mL (≈ 4.19 µM) | MIC [6]: > 8 µg/mL | MIC [4]: 0.5 µg/mL (≈ 1.05 µM)

Clc1ccc2[nH]c3c(OCCCNCc4ncc[nH]4)c4[nH]c5ccc(Cl)cc5c4cc3c2c1
MIC [1]: 0.5 µg/mL (≈ 1.05 µM) | MIC [2]: 1 µg/mL (≈ 2.09 µM) | MIC [5]: > 8 µg/mL | MIC [3]: 2 µg/mL (≈ 4.18 µM) | MIC [6]: > 8 µg/mL | MIC [4]: 1 µg/mL (≈ 2.09 µM)

Fc1ccc2[nH]c3c(OC[C@H]4CCCN4)c4[nH]c5ccc(F)cc5c4cc3c2c1
MIC [1]: 0.5 µg/mL (≈ 1.28 µM) | MIC [2]: 0.5 µg/mL (≈ 1.28 µM) | MIC [5]: 8 µg/mL (≈ 20.4 µM) | MIC [3]: 2 µg/mL (≈ 5.11 µM) | MIC [6]: 8 µg/mL (≈ 20.4 µM) | MIC [4]: 0.5 µg/mL (≈ 1.28 µM)

Fc1ccc2[nH]c3c(OC4CCCNC4)c4[nH]c5ccc(F)cc5c4cc3c2c1 (stereo not shown)
MIC [1]: 0.5 µg/mL (≈ 1.28 µM) | MIC [2]: 1 µg/mL (≈ 2.55 µM) | MIC [5]: 8 µg/mL (≈ 20.4 µM) | MIC [3]: 4 µg/mL (≈ 10.2 µM) | MIC [6]: > 8 µg/mL | MIC [4]: 0.5 µg/mL (≈ 1.28 µM)

N[C@H]1CC[C@@H](Oc2c3[nH]c4ccc(F)cc4c3cc3c2[nH]c2ccc(F)cc23)CC1
MIC [1]: 0.5 µg/mL (≈ 1.23 µM) | MIC [2]: 1 µg/mL (≈ 2.47 µM) | MIC [5]: > 8 µg/mL | MIC [3]: 4 µg/mL (≈ 9.87 µM) | MIC [6]: > 8 µg/mL | MIC [4]: 0.5 µg/mL (≈ 1.23 µM)

Clc1ccc2[nH]c3c(OCCCNCc4cnc[nH]4)c4[nH]c5ccc(Cl)cc5c4cc3c2c1
MIC [1]: 0.5 µg/mL (≈ 1.05 µM) | MIC [2]: 1 µg/mL (≈ 2.09 µM) | MIC [3]: 4 µg/mL (≈ 8.36 µM) | MIC [4]: 0.5 µg/mL (≈ 1.05 µM)
